Test results taken from BindingDB's records for doi:10.7270/Q2B27SQ0 (Nmmlsc, 2008).

Molecular target: Apoptosis regulator Bcl-2 (Homo sapiens, UniProt P10415)
Assay: PubChem AID 950
Conditions: not given

Chain of Apoptosis regulator Bcl-2 (P10415 whole entry): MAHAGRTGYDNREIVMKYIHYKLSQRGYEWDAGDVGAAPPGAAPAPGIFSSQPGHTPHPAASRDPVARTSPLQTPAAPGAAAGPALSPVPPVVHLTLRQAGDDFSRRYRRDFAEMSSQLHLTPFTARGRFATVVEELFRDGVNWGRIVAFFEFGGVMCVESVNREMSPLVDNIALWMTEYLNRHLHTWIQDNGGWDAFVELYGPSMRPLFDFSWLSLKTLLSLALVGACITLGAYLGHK

Row | EC50 [µM] | Compound
1 | 0.67 | Cc1nc2ncccn2c1-c1csc(Nc2ccc(O)cc2)n1
2 | 7.44 | O=C(NCc1ccccc1)c1ccc2nc(-c3ccco3)c(-c3ccco3)nc2c1 [2,3-bis(furan-2-yl)-N-(phenylmethyl)quinoxaline-6-carboxamide]

Same assay, conditions: inactive by the depositor's call

Row | Compound | EC50 [µM]
3 | O=C(/C=C\c1ccc(-c2ccccc2)o1)c1ccccc1 [(Z)-1-phenyl-3-(5-phenyl-2-furanyl)-2-propen-1-one] | 34.9
4 | CNc1ccc(Br)cc(C(=O)/C=C/c2cccc(OC)c2)c1=O [4-bromo-2-[3-(3-methoxyphenyl)acryloyl]-7-(methylamino)-2,4,6-cycloheptatrien-1-one] | 55
5 | Clc1nss/c1=N\c1ccc(Br)cc1 [N-(4-bromophenyl)-4-chloro-5-dithiazolimine] | 49.8
6 | CSc1nnc2c3cc(C)ccc3n(Cc3ccccc3)c2n1 [SMR000046397] | 29.4

Further lines, results first:

Row | EC50 [µM] | Compound
7 | 19.8 | c1ccc(-c2nc(N3CCCCCC3)c3ccccc3n2)nc1 [SMR000046752]
8 | 17.9 | O=C(NC1=C(Nc2ccc(Cl)cc2)C(=O)c2ccccc2C1=O)c1ccccc1
9 | 13.6 | CCOC(=O)C1=C(Cc2ccc(OC)cc2)C(=O)c2ccccc2C1=O [SMR000136995]
10 | 10.9 | O=C(Nc1cccc(C(F)(F)F)c1)c1ccc2nc(-c3ccco3)c(-c3ccco3)nc2c1 [SMR000142217]
11 | 1.8 | COC(=O)c1c(C(=O)OC)c2cccc3cc(-c4ccccc4)c4ccc1c4n32 [SMR000161417]
